Patent US10844092B2, “Peptide for promoting regeneration of dentin or dental pulp tissue” (HysensBio Co., Ltd., priority 2016, dated 2020)

Key:
Dspp gene = assay: mRNA level of Dspp gene in MDPC-23 cells by real-time PCR; format: cell-based, mouse; settings: 48 hours, ratio relative to Dspp mRNA level of control group, triplicate
Method: The MDPC-23 cells cultured in Example 2-1 were treated with the peptides of the respective groups which were synthesized in Example 1, and cultured for 48 hours. Then, mRNA levels of an odontoblast differentiation marker Dspp gene expressed in the MDPC-23 cells were measured, and a ratio of the measured Dspp mRNA level relative to a Dspp mRNA level measured in a control group was calculated, respectively (Tables 13 to 24). Further, mean values of the Dspp mRNA levels measured in the peptides of respective groups were compared between the groups (FIG. 1B). In this regard MDPC-23 cells which were treated with none of the peptides of the present invention were used as a control group.
The expression levels of the Dspp gene were measured by RT-PCR and real time PCR analysis: In detail, total RNA was extracted from the MDPC-23 cells with TRIzol reagent. 2 μg of the total RNA, 1 μl of reverse transcriptase, and 0.5 μg oligo (dT) were used to synthesize cDNA. The synthesized cDNA were used in real-time polymerase chain reaction. The real-time polymerase chain reaction was performed on an ABI PRISM 7500 sequence detection system (Applied Biosystems) using the following primers and a SYBR GREEN PCR Master Mix (Takara, Japan). The real-time polymerase chain reaction was performed under conditions of 94° C., 1 min; 95° C., 15 sec 60° C., 34 sec for 40 cycles. Results were analyzed by a comparative cycle threshold (CT) method. In this regard, Gapdh gene was used as an internal control. The experiments were performed in triplicate, and then mean values and standard deviations thereof were taken as measured values.

DSP = assay: Immunostaining of transplanted tissues for DSP; format: in vivo, immunocompromised mice
Excerpt: (§1) Briefly, the removed tissues were fixed in 4% paraformaldehyde, decalcified in 10% EDTA (pH 7.4), embedded in paraffin, and then immunostained with anti-DSP and anti-BSP antibodies at a dilution of 1:150 as primary antibodies, and reacted with biotin-labeled goat anti-rabbit IgG (Vector Labs) as secondary antibodies to determine DSP and BSP levels (FIG. 4). In this regard, the tissue transplanted with an implant including none of the peptides of the present invention was used as a control group.
(§2) In this regard, a tissue transplanted with an implant including none of the peptides of the present invention was used as a control group.

BSP = assay: Immunostaining of transplanted tissues for BSP; format: in vivo, immunocompromised mice
Excerpt: as §1, §2

[1] = system: physiologic dentin (tertiary dentin); assay: Indirect pulp capping canine model, physiologic (tertiary) dentin formation; format: in vivo, dogs; settings: 1.5 μg, 3 weeks
Excerpt: In detail, to establish dentin-damaged canine models by indirect pulp capping, a part of enamel in the cervical part was removed from the premolars of 12-month-old adult dogs by using a dental bur. The dentin was shallowly removed according to the exposure degree of the dentin to form a shallow cavity, thereby establishing a shallow cavity model. The dentin was deeply removed such that the dental pulp was seen through, but not exposed to the outside, thereby establishing a deep cavity model. The models were treated with the control group, the peptide of Group 11, or the peptide of Group 12. 3 weeks later, the adult dogs were euthanized, and teeth were extracted therefrom.
The extracted teeth were fixed in 4% paraformaldehyde for 2.4 hours, washed with PBS (pH 7.4) several times, and then decalcified with 10% formic acid. The decalcified teeth were embedded in paraffin to prepare tissue sections. The tissue sections were stained with hematoxylin/eosin (H&E), and dentin regeneration capabilities were evaluated by histological analysis.

[2] = system: physiologic dentin (tertiary dentin); assay: Direct pulp capping canine model, physiologic (tertiary) dentin formation; format: in vivo, dogs; settings: exposed pulp, peptide 1.5 μg, sealed with MTA, covered with GI cement, 3 weeks, FIG. 12
Method: In detail, to establish dentin-damaged canine models by direct pulp capping, the enamel and dentin in the cervical part were removed from the premolars of 12-month-old adult dogs by using a dental bur so that the dental pulp was exposed to the outside. The models were treated with the control group, the peptide of Group 11, or the peptide of Group 12. 3 weeks later, the adult dogs were euthanized and teeth were extracted therefrom.
The extracted teeth were fixed in 4% paraformaldehyde for 24 hours, washed with PBS (pH 7.4) several times, and then decalcified with 10% formic acid. The decalcified teeth were embedded in paraffin to prepare tissue sections. The tissue sections were stained with hematoxylin/eosin (H&E), and dentin regeneration capabilities were evaluated by histological analysis.

[3] = 6 weeks after transplantation, FIG. 4
[4] = 12 weeks after transplantation, FIG. 7

Substance	mRNA level of Dspp gene, Mean (Dspp gene)	other results
61 (KYRQKKKSYK; Synthetic construct of novel peptide) [compound 61]	2.301	
62 (KYRQKRKSYK; Synthetic construct of novel peptide) [compound 62]	1.672	
63 (KYRQKKRSYK; Synthetic construct of novel peptide) [compound 63]	1.769	
64 (KYRQKRRSYK; Synthetic construct of novel peptide) [compound 64]	1.967	
65 (KYKQRKKNKY; Synthetic construct of novel peptide) [compound 65]	1.723	
66 (KYKQRKRNKY; Synthetic construct of novel peptide) [compound 66]	1.627	
67 (KYKQRRKNKY; Synthetic construct of novel peptide) [compound 67]	1.777	
68 (KYKQRRRNKY; Synthetic construct of novel peptide) [compound 68]	1.432	
69 (KYKQKKKNKY; Synthetic construct of novel peptide) [compound 69]	2.011	
70 (KYKQKRKNKY; Synthetic construct of novel peptide) [compound 70]	1.927	
71 (KYKQKKRNKY; Synthetic construct of novel peptide) [compound 71]	1.879	
72 (KYKQKRRNKY; Synthetic construct of novel peptide) [compound 72]	2.011	
73 (KYKQRKKSKY; Synthetic construct of novel peptide) [compound 73]	2.035	
74 (KYKQRKRSKY; Synthetic construct of novel peptide) [compound 74]	2.011	
75 (KYKQRRKSKY; Synthetic construct of novel peptide) [compound 75]	1.997	
76 (KYKQRRRSKY; Synthetic construct of novel peptide) [compound 76]	2.351	
77 (KYKQKKKSKY; Synthetic construct of novel peptide) [compound 77]	1.729	
78 (KYKQKRKSKY; Synthetic construct of novel peptide) [compound 78]	2.635	
79 (KYKQKKRSKY; Synthetic construct of novel peptide) [compound 79]	2.231	

Substance	mRNA level of Dspp gene, Mean (Dspp gene)	other results
80 (KYKQKRRSKY; Synthetic construct of novel peptide) [compound 80]	1.837	
81 (KYKQRKKNYK; Synthetic construct of novel peptide) [compound 81]	3.092	
82 (KYKQRKRNYK; Synthetic construct of novel peptide) [compound 82]	3.361	
83 (KYKQRRKNYK; Synthetic construct of novel peptide) [compound 83]	3.572	
84 (KYKQRRRNYK; Synthetic construct of novel peptide) [compound 84]	3.702	
85 (KYKQKKKNYK; Synthetic construct of novel peptide) [compound 85]	3.670	
86 (KYKQKRKNYK; Synthetic construct of novel peptide) [compound 86]	3.705	
87 (KYKQKKRNYK; Synthetic construct of novel peptide) [compound 87]	3.888	
88 (KYKQKRRNYK; Synthetic construct of novel peptide) [compound 88]	4.021	
89 (KYKQRKKSYK; Synthetic construct of novel peptide) [compound 89]	4.211	
90 (KYKQRKRSYK; Synthetic construct of novel peptide) [compound 90]	4.811	
91 (KYKQRRKSYK; Synthetic construct of novel peptide) [compound 91]	4.362	
92 (KYKQRRRSYK; Synthetic construct of novel peptide) [compound 92]	4.211	
93 (KYKQKKKSYK; Synthetic construct of novel peptide) [compound 93]	4.525	
94 (KYKQKRKSYK; Synthetic construct of novel peptide) [compound 94]	3.836	
95 (KYKQKKRSYK; Synthetic construct of novel peptide) [compound 95]	4.620	
96 (KYKQKRRSYK; Synthetic construct of novel peptide) [compound 96]	5.211	
KYKQKKRNYK (Synthetic construct of novel peptide) [SEQ ID NO: 87]		DSP expression level (DSP; [3]): relatively high DSP expression level; DSP expression level (DSP; [4]): relatively very high DSP expression levels; BSP expression level (BSP; [3]): low BSP expression level; BSP expression level (BSP; [4]): low BSP expression level; dentin regeneration (histological analysis, H&E) ([1]; deep cavity model, together with GI cement, FIG. 11): regeneration of physiologic tertiary dentin (TD) which was continuous with the odontoblast processes of the original dentin structure was observed; dentin regeneration (histological analysis, H&E) ([1]; shallow cavity model, FIG. 10): regeneration of physiologic tertiary dentin (TD) which was continuous with the odontoblast processes of the original dentin structure was observed; dentin regeneration (histological analysis, H&E) [2]: new physiologic dentin (TD) which was continuous with the odontoblast processes of the original dentin was formed
